This is an account of results in patent US20250346599A1, “TRICYCLIC PHTHALAZINONE PARP INHIBITORS AND METHODS OF USE” (Valo Health, Inc., priority 2022, published 2025).

The term IC50 denotes the point on the concentration scale where inhibition reaches its midpoint. Low values mean greater potency, high ones weaker potency. A word on the Papp A→B: it is the apparent permeability from the apical to the basolateral side of a cell layer. A lower Papp A→B goes with slow passage.

The target of one series is PARP1 enzyme (Homo sapiens (Human), UniProt P09874). The series can be described thus: PARP Mass Spectroscopy Assay (PARP1 enzymatic assay, nicotinamide detection). The series is classed as biochemical. The conditions noted are these: 5 nM PARP1, 5 uM β-NAD, 60 min at RT, NAM by mass spectrometry. The text has this:
Materials and Reagents: The PARP1 enzyme was purchased from BPS Bioscience (cat #80501). Tris-HCl, pH 8.0 was purchased from Corning (cat #46-031-CM). Magnesium chloride was purchased from Thermo Fisher Scientific (previously Honeywell Fluka, cat #63020-1L). All other assay components, activated DNA (cat #D4522), core histones (cat #SRP6590), β-Nicotinamide adenine dinucleotide (β-NAD—cat #N8285), 3ABA PARP1 small molecule inhibitor (from the PARP1 Enzyme Activity Assay kit, cat #17-10149), Sodium Chloride (NaCl, cat #56546-1L), Triton X-100 (cat #93443), Dithiothreitol (DTT, cat #43816-250 ML) were all purchased from Millipore Sigma.
Assay Buffer: The assay buffer includes the following reagents: 50 mM Tris-HCl pH 8.0, 50 mM NaCl, 10 mM, MgCl2, 0.01% Triton X-100, and 1 mM DTT.
PARP1 enzymatic assays were performed in 384-well plates in a total volume of 20 μL in the assay buffer. For concentration response curves, compounds were serially diluted 3-fold from 2 mM highest concentration […] to generate a 10-point curve, and 125 nL was transferred to the assay plate using the Echo acoustic dispenser for a final concentration range of 26.6 μM to […] in 10 μL reaction. Five microliters of 10 nM PARP1 enzyme and 100 nM core histones (2×) mix were added to the assay plates and pre-incubated for 30 mins at room temperature (RT). The reaction was initiated by the addition of a 5 μL of 10 uM β-NAD plus 0.02 mg/mL activated DNA (2×) mix. The reaction is incubated for 60 min at RT. The final concentration of the PARP1 enzyme and substrate concentrations were 5 nM and 5 uM, respectively. The positive control (high signal) and negative control (low signal) wells had 125 nL of DMSO in place of compounds. After the incubation is complete, the reaction is stopped by the addition of 10 μL of 10 uM of the 3ABA PARP1 inhibitor, incubated for 5 min at RT, and placed in the −80 C freezer for shipment to the Valo Health site in Branford Connecticut where mass spectrometry will be used to directly detect quantities of nicotinamide (NAM).
The percent inhibition of enzyme activity was calculated according to the following equation: […]
The values of Ssample, Shigh, and Slow in the equation refer to the NAM concentration detected in the assay wells, high control wells, and low control wells, respectively. To determine inhibitor IC50 values, % inhibition of the CRCs (concentration response curves) was fitted to the standard single-site four-parameter logistic equation.

Series [1] concerns the target human MDR1 (P-glycoprotein; P-gp) (Homo sapiens (Human), UniProt P08183). The series can be described thus: bi-directional MDCK-MDR1 permeability assay. The conditions noted are these: for MDCK-MDR1 Papp A→B (10^−6 cm/s) / Papp A→B: apical to basolateral direction; for MDCK-MDR1 ER / efflux ratio: efflux ratio B→A/A→B; for Papp A→B: dog; for Papp A→B / efflux ratio: MDCK-MDR1; for efflux ratio: human, read-out: MDCK-MDR1 ER. It counts as in vitro ADME. The source says: The bi-directional assay containing a Mandin Darby canine kidney (MDCK) cell line transfected with human MDR1 gene (P-glycoprotein; P-gp) designed to overexpress the MDR1 efflux transporter, a major efflux transporter at the blood brain barrier (BBB), uses an established method that measures the rate of flux of a compound across polarized cell monolayers. As well appreciated in the art, the data generated from the MDCK-MDR1 permeability assay may be used to predict in vivo absorption of drugs. The bi-directional MDCK-MDR1 permeability assay can identify and quantify levels of active efflux. Screening compounds in both the apical to basolateral direction (A→B) and basolateral to apical direction (B→A) across the cell monolayer provides a ratio of B→A/A→B (efflux ratio; “ER”). Unlike the Caco-2 assay, the MDCK-MDR1 assay is not subject to potential efflux interference by breast cancer resistance protein (BCRP). […] The data may further be used to predict blood brain barrier (BBB) permeability via calculation from the data of log(permeability-surface area product) (“log PS”), well-understood to be predictive of the in vivo log([brain concentration]/[plasma concentration]).

Sequence of PARP1 enzyme (P09874 whole entry): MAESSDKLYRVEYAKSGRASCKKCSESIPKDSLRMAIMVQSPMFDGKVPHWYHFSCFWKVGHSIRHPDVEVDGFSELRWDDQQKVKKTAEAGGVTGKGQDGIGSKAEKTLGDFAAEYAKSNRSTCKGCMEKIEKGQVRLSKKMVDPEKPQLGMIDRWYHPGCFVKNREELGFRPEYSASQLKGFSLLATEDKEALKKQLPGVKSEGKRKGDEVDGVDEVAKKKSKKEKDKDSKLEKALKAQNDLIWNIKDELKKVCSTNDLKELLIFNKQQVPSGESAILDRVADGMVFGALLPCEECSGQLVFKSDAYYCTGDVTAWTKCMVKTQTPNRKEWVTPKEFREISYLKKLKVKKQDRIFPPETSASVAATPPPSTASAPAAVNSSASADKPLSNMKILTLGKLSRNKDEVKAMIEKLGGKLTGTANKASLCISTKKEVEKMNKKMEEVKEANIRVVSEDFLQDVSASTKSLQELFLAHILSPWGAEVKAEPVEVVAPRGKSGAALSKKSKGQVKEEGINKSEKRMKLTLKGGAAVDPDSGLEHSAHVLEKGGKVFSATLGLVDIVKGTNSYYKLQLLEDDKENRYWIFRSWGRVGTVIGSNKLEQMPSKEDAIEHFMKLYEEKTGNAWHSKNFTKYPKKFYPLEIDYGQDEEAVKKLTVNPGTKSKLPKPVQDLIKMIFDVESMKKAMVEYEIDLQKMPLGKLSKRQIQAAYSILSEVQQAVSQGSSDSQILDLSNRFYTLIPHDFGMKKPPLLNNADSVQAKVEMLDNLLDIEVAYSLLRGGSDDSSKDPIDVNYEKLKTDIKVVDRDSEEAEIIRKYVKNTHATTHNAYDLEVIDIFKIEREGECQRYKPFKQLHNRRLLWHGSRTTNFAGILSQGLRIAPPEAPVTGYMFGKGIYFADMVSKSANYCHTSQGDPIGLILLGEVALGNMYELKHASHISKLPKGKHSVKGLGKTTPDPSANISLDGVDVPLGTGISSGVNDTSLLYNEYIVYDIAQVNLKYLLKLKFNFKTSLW
Sequence of human MDR1 (P-glycoprotein; P-gp) (P08183 whole entry): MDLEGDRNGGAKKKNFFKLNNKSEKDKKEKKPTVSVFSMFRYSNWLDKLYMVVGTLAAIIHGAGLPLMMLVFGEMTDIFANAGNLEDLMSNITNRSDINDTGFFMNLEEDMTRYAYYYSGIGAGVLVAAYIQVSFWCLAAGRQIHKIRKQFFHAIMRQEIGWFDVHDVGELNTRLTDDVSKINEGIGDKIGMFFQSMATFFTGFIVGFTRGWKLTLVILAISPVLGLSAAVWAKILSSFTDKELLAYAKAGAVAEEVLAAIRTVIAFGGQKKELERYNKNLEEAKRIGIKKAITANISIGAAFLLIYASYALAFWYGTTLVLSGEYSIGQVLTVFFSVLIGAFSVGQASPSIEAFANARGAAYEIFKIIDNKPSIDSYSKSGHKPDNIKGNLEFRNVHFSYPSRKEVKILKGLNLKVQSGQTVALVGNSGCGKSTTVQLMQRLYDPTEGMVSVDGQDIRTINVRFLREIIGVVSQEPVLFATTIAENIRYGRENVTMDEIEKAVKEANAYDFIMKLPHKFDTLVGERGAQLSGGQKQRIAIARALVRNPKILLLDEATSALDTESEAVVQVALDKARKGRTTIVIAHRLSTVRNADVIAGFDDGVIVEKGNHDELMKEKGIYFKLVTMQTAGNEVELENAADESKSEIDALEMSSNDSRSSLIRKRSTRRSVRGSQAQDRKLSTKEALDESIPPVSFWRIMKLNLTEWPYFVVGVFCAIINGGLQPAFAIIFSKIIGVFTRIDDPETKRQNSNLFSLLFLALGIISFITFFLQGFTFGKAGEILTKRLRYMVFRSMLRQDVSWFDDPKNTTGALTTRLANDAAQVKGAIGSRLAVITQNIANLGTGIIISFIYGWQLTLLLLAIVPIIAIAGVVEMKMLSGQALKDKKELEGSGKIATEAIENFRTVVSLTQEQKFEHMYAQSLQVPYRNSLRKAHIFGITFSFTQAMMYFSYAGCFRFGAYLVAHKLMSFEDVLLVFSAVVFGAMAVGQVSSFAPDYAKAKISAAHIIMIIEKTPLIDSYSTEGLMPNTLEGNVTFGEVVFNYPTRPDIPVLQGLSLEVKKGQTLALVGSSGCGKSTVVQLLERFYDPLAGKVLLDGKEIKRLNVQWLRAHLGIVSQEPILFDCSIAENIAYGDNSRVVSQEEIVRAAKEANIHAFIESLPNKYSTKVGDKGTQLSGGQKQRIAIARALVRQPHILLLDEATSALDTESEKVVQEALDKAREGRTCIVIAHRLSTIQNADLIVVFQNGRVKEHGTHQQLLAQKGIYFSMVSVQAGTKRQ

For `O=c1[nH]nc2c3c(cc(F)cc13)NCC2c1ccc(Cl)cc1F` (stereo not drawn) [Compound 0189-6], the IC50 at PARP1 enzyme was 41 nM. Moreover, in series [1], the “MDCK-MDR1 Papp A→B (10^−6 cm/s)” value was 10.6 10^−6 cm/s and the “MDCK-MDR1 ER” value is on record as 0.59.
On to `N#Cc1ccc([C@H]2CNc3cc(F)cc4c(=O)[nH]nc2c34)c(F)c1` [Compound 0187B], for which, at PARP1 enzyme, 41 nM corresponded to half-maximal inhibition (IC50). Also, in series [1], the “MDCK-MDR1 Papp A→B (10^−6 cm/s)” value is given as 8.56 10^−6 cm/s and the “MDCK-MDR1 ER” value stood at 1.67.
`C[C@H]1Nc2cc(F)cc3c(=O)[nH]nc(c23)[C@@H]1c1ccc(Cl)c(F)c1` [Compound 0195A, (8R,9R)-9-(4-chloro-3-fluorophenyl)-5-fluoro-8-methyl-2,7,8,9-tetrahydro-3H-pyrido[4,3,2-de]phthalazin-3-one] had an IC50 against PARP1 enzyme of 21 nM. Further, in series [1], the Papp A→B was determined as 13.9 ×10⁻⁶ cm/s and the efflux ratio turned out to be 0.699.
`O=c1[nH]nc2c3c(cc(F)cc13)N[C@H]([C@H]1CCOC1)[C@H]2c1ccccc1Cl` [Compound 0121A]: the IC50 against PARP1 enzyme amounted to 32 nM. Moreover, in series [1], the “MDCK-MDR1 Papp A→B (10^−6 cm/s)” value is recorded as 5.66 10^−6 cm/s and the “MDCK-MDR1 ER” value is 3.06.
In the same order, the values of `CC(C)[C@H]1Nc2cc(F)cc3c(=O)[nH]nc(c23)[C@H]1c1ccccc1Cl` [Compound 0222B] are 18 nM, 9.59 10^−6 cm/s and 0.92.
Regarding `CC[C@@H]1Nc2cc(F)cc3c(=O)[nH]nc(c23)[C@H]1c1ccccc1Cl` [Compound 0206A, (11S,12S)-12-(2-chlorophenyl)-11-ethyl-7-fluoro-2,3,10-triazatricyclo[7.3.1.0^{5,13}]trideca-1,5(13),6,8-tetraen-4-one], the IC50 at PARP1 enzyme was 9 nM. In series [1], the “MDCK-MDR1 Papp A→B (10^−6 cm/s)” value is 13.4 10^−6 cm/s and the “MDCK-MDR1 ER” value was 0.695.
In the case of `O=c1[nH]nc2c3c(cc(F)cc13)N[C@@H](C1CCC(F)(F)CC1)[C@@H]2c1ccccc1Cl` [Compound 0213B], half-maximal inhibition against PARP1 enzyme (IC50) was put at 130 nM. In series [1], the “MDCK-MDR1 Papp A→B (10^−6 cm/s)” value is recorded as 4.93 10^−6 cm/s and the “MDCK-MDR1 ER” value is 3.33.
In turn, `O=c1[nH]nc2c3c(cc(F)cc13)NC[C@H]2c1ccccc1Cl` [Compound 0120A, (R)-9-(2-chlorophenyl)-5-fluoro-2,7,8,9-tetrahydro-3H-pyrido[4,3,2-de]phthalazin-3-one] gave an IC50 against PARP1 enzyme of 87 nM. In series [1], the Papp A→B was found to be 12.9 ×10⁻⁶ cm/s and the efflux ratio worked out at 0.655.
In turn, `C[C@H]1Nc2cc(F)cc3c(=O)[nH]nc(c23)[C@@H]1c1ccc(C#N)c(F)c1` [Compound 0193A] showed an IC50 at PARP1 enzyme of 24 nM. In series [1], the “MDCK-MDR1 Papp A→B (10^−6 cm/s)” value is 5.83 10^−6 cm/s and the “MDCK-MDR1 ER” value is 2.63.
In the same order, the values of `CC(C)[C@@H]1Nc2cc(F)cc3c(=O)[nH]nc(c23)[C@H]1c1c(F)cc(F)cc1F` [Compound 0221B] are 19 nM, 8.48 10^−6 cm/s and 1.15.
In the same order, the values of `O=c1[nH]nc2c3c(cc(F)cc13)N[C@@H](C1CC1)[C@@H]2c1ccccc1Cl` [Compound 0207A, (11S,12S)-12-(2-chlorophenyl)-11-cyclopropyl-7-fluoro-2,3,10-triazatricyclo[7.3.1.0^{5,13}]trideca-1,5(13),6,8-tetraen-4-one] are 64 nM, 9.65 10^−6 cm/s and 0.741.
`CN1CCC([C@H]2Nc3cc(F)cc4c(=O)[nH]nc(c34)[C@H]2c2ccc(F)cc2F)CC1` [Compound 0110B, (8R,9S)-9-(2,4-difluorophenyl)-5-fluoro-8-(1-methylpiperidin-4-yl)-2,7,8,9-tetrahydro-3H-pyrido[4,3,2-de]phthalazin-3-one] yielded an IC50 against PARP1 enzyme of 45 nM. In series [1], the Papp A→B was 0.498 ×10⁻⁶ cm/s and the efflux ratio came to 30.4.
`CN1CCC([C@@H]2Nc3cc(F)cc4c(=O)[nH]nc(c34)[C@H]2c2ccccc2Cl)CC1` [Compound 0116B, (8S,9S)-9-(2-chlorophenyl)-5-fluoro-8-(1-methylpiperidin-4-yl)-2,7,8,9-tetrahydro-3H-pyrido[4,3,2-de]phthalazin-3-one] returned an IC50 at PARP1 enzyme of 123 nM. Moreover, in series [1], the Papp A→B was found to be 0.471 ×10⁻⁶ cm/s and the efflux ratio was determined as 30.8.
At PARP1 enzyme, `O=c1[nH]nc2c3c(cc(F)cc13)N[C@@H]([C@H]1CCOC1)[C@@H]2c1ccc(F)cc1F` [Compound 0115C] registered an IC50 of 252 nM. In addition, in series [1], the “MDCK-MDR1 Papp A→B (10^−6 cm/s)” value is reported as 4.82 10^−6 cm/s and the “MDCK-MDR1 ER” value came out at 4.67.
On to `O=c1[nH]nc2c3c(cc(F)cc13)N[C@H](C1CCOCC1)[C@H]2c1ccccc1Cl` [Compound 0210B, (11R,12R)-12-(2-chlorophenyl)-7-fluoro-11-(oxan-4-yl)-2,3,10-triazatricyclo[7.3.1.0^{5,13}]trideca-1,5(13),6,8-tetraen-4-one], for which the IC50 at PARP1 enzyme is 142 nM. In addition, in series [1], the “MDCK-MDR1 Papp A→B (10^−6 cm/s)” value is 2.27 10^−6 cm/s and the “MDCK-MDR1 ER” value amounted to 9.91.
For `O=c1[nH]nc2c3c(cc(F)cc13)N[C@@H]([C@@H]1CCOC1)[C@@H]2c1ccccc1Cl` [Compound 0121D], in that order: 43 nM, 3.66 10^−6 cm/s and 5.77.
As for `O=c1[nH]nc2c3c(cc(F)cc13)NC[C@H]2c1ccc(Cl)c(F)c1` [Compound 0188A, (R)-9-(4-chloro-3-fluorophenyl)-5-fluoro-2,7,8,9-tetrahydro-3H-pyrido[4,3,2-de]phthalazin-3-one], the half-maximal inhibitory concentration (IC50) at PARP1 enzyme came to 28 nM. Moreover, in series [1], the Papp A→B came to 11.7 ×10⁻⁶ cm/s and the efflux ratio is 0.541.
Turning to `O=c1[nH]nc2c3c(cc(F)cc13)NC[C@@H]2c1ccccc1Cl` [Compound 0120B, (S)-9-(2-chlorophenyl)-5-fluoro-2,7,8,9-tetrahydro-3H-pyrido[4,3,2-de]phthalazin-3-one], the midpoint of inhibition on PARP1 enzyme, the IC50, lay at 47 nM. Further, in series [1], the Papp A→B stood at 13.3 ×10⁻⁶ cm/s and the efflux ratio worked out at 0.612.
Turning to `C[C@H]1Nc2cc(F)cc3c(=O)[nH]nc(c23)[C@@H]1c1ccc(F)cc1F` [Compound 0174A, (8R,9R)-9-(2,4-difluorophenyl)-5-fluoro-8-methyl-2,7,8,9-tetrahydro-3H-pyrido[4,3,2-de]phthalazin-3-one], the IC50 against PARP1 enzyme worked out at 36 nM. In series [1], the Papp A→B was 14 ×10⁻⁶ cm/s and the efflux ratio amounted to 0.532.
On PARP1 enzyme, `C[C@H]1Nc2cc(F)cc3c(=O)[nH]nc(c23)[C@@H]1c1ccc(C#N)cc1F` [Compound 0194A] yielded an IC50 of 2 nM. Besides, in series [1], the “MDCK-MDR1 Papp A→B (10^−6 cm/s)” value is listed as 6.96 10^−6 cm/s and the “MDCK-MDR1 ER” value was found to be 2.22.
`C[C@@H]1Nc2cc(F)cc3c(=O)[nH]nc(c23)[C@@H]1[C@H]1CCCCN1C` [Compound 0199C] showed an IC50 against PARP1 enzyme of 38 nM. In series [1], the “MDCK-MDR1 Papp A→B (10^−6 cm/s)” value is listed as 0.506 10^−6 cm/s and the “MDCK-MDR1 ER” value is 17.9.
Take `O=c1[nH]nc2c3c(cc(F)cc13)N[C@@H](C1CCOCC1)[C@@H]2c1ccccc1Cl` [Compound 0210A, (11S,12S)-12-(2-chlorophenyl)-7-fluoro-11-(oxan-4-yl)-2,3,10-triazatricyclo[7.3.1.0^{5,13}]trideca-1,5(13),6,8-tetraen-4-one]: half-maximal inhibition on PARP1 enzyme (IC50) required 106 nM. In series [1], the “MDCK-MDR1 Papp A→B (10^−6 cm/s)” value is recorded as 2.91 10^−6 cm/s and the “MDCK-MDR1 ER” value is 6.97.
